# Reference: patent publication US20210048443A1, “METHOD FOR DIAGNOSING HAEMOSTASIS DISORDERS USING ACTIVATED CHARCOAL” (UNIVERSITÉ DE NAMUR ASBL, priority 2018, published 2021)
# Assays:
# Antithrombin activity = Antithrombin activity assay, interference of direct oral anticoagulants; format: biochemical; settings: arrow grades
# From the text: (§1) Coagulation tests or assays most affected by the presence of anticoagulants in the plasma sample will be the tests that involve the clotting factor to which the coagulation inhibitor is directed, leading to false-positive or false-negative results (Table 1).
# PT/clotting factors = experiment: PT/clotting factors, interference of direct oral anticoagulants; format: biochemical; settings: arrow grades, key not given; all factors affected
# From the text: as §1
# platelet-poor plasma [1] = experiment: activated Partial Thromboplastin Time (aPTT) assay on plasma with DOACs; format: biochemical; settings: for Effect on aPTT of platelet-poor plasma: increasing concentrations of DOACs, no charcoal (FIG. 2a)
# Description: (§2) Standard tests for in vitro diagnosis of a haemostasis disorder, for example in hospital laboratories, are generally performed on plasma samples obtain from a patient. For the preparation of such plasma samples, blood components of a blood sample from a patient are typically separated by two centrifugation steps, both at 2500 g for 15 min (FIG. 1). The first centrifugation step will separate the blood in solid substances (e.g. red and white blood cells) (i.e. the lower phase) and blood plasma (i.e. upper phase). Subsequently, the blood plasma is collected and submitted to a second centrifugation step, which pelletizes the residual blood cells and/or platelets. The upper phase obtained by the second centrifugation step (i.e. platelet-poor plasma) can be used for haemostatic tests. However, the platelet-poor plasma obtained by standard methods will comprise direct anticoagulants (e.g. DOACs), if the patient is treated therewith, which may interfere with several clotting times tests (Table 1).
# (§3) A blood sample obtained from a subject was centrifuged at 2500 g during 15 min to separate the blood into solid substances (e.g. red and white blood cells) (i.e. lower phase) and blood plasma (i.e. upper phase).
# The plasma obtained from the first (and only) centrifugation step was incubated with activated charcoal (10 mg/ml of plasma) for 5 minutes and the plasma was subsequently recovered from the activated charcoal by passing the plasma through a filter with 0.65 μm pores (FIG. 3). Passing the plasma through the filter was achieved by a short centrifugation. The filter with 0.65 μm pores allowed to efficiently remove the activated charcoal and residual blood cells and/or platelets, which have a larger size than 0.65 μm, from the plasma with a minimal interference with blood coagulation tests.
# (§4) Plasma was obtained by centrifuging once a blood sample obtained from a subject as described in Example 2. The plasma sample was incubated with different concentrations of activated charcoal (i.e. 5 mg/ml, 10 mg/ml or 15 mg/ml) for 5 minutes and the plasma was subsequently recovered from the activated charcoal by passing the plasma through a filter with 0.65 μm pores and activated charcoal by a short centrifugation.
# platelet-poor plasma [2] = experiment: Prothrombin Time (PT) assay on plasma with DOACs; format: biochemical; settings: for Effect on PT of platelet-poor plasma: increasing concentrations of DOACs, no charcoal (FIG. 2b)
# Description: as §2, with “For” for “Standard tests for in vitro diagnosis of a haemostasis disorder, for example in hospital laboratories, are generally performed on plasma samples obtain from a patient. For”
# as §3
# The plasma obtained from the first (and only) centrifugation step was incubated with activated charcoal (10 mg/ml of plasma) for 5 minutes and the plasma was subsequently recovered from the activated charcoal by passing the plasma through a filter with 0.65 μm pores (FIG. 3). Passing the plasma through the filter was achieved by a short centrifugation.
# as §4, with “The” for “Plasma was obtained by centrifuging once a blood sample obtained from a subject as described in Example 2. The”
# Protein S activity = Protein S activity assay, interference of direct oral anticoagulants; format: biochemical; settings: arrow grades; antigen-based assay unaffected, clot-based affected
# From the text: as §1
# Protein C activity = Protein C activity assay, interference of direct oral anticoagulants; format: biochemical; settings: arrow grades; chromogenic and antigen-based assays unaffected, clot-based affected
# From the text: as §1
# APCR = APCR (activated protein C resistance) assay, interference of direct oral anticoagulants; format: biochemical; settings: for Interference with APCR: arrow grades, aPTT-based assays are mostly affected
# From the text: as §1
# Lupus anticoagulant = Lupus anticoagulant test, interference of direct oral anticoagulants; format: biochemical; settings: arrow grades; false positive due to high screen/confirmation assay ratios
# From the text: as §1
# aPTT/clotting factors = experiment: aPTT/clotting factors, interference of direct oral anticoagulants; format: biochemical; settings: arrow grades, key not given; all factors affected
# From the text: as §1
# patient's plasma = experiment: LA diagnostic assays (PTT LA, Staclot LA, DRVVT, DRVVT confirm) on patient's plasma; format: biochemical; settings: platelet-poor plasma of patient treated with rivaroxaban (339 ng per ml), DRVVT confirm (FIG. 6)
# Description: The efficacy of the method as disclosed herein was assessed in a clinical situation. […] For LA diagnosis, several in vitro diagnosis assays were performed on the patient's plasma, including Partial Thromboplastin Time-Lupus anticoagulant Screen (PTT LA), PTT LA confirm (Staclot LA), Dilute Russel Viper Venom Time screen (DRVVT) and DRVVT confirm.
# [3] = human, in vivo
Compound,Interference with Antithrombin activity (Antithrombin activity),Interference with PT/clotting factors (PT/clotting factors),Effect on aPTT of platelet-poor plasma (platelet-poor plasma [1]),Effect on PT of platelet-poor plasma (platelet-poor plasma [2]),Interference with Protein S activity (Protein S activity),Interference with Protein C activity (Protein C activity),Interference with APCR (APCR),Interference with Lupus anticoagulant (Lupus anticoagulant),Interference with aPTT/clotting factors (aPTT/clotting factors),"Effect of Rivaroxaban on aPTT after activated charcoal treatment (platelet-poor plasma [1]; activated charcoal 5, 10 or 15 mg/ml, 5 minutes, 0.65 μm filter, Rivaroxaban up to 1000 ng/ml (FIG. 5a))","Effect of Rivaroxaban on PT after activated charcoal treatment (platelet-poor plasma [2]; activated charcoal 5, 10 or 15 mg/ml, 5 minutes, 0.65 μm filter, Rivaroxaban up to 1000 ng/ml (FIG. 5b))",Interference with Pefakit APCR Factor V Leiden (APCR; Pefakit APCR Factor V Leiden kit),"Clotting time in LA diagnostic assays, untreated plasma (patient's plasma)",rivaroxaban per ml of plasma in patient plasma sample [3] [ng per ml]
"COc1ccc(-n2nc(C(N)=O)c3c2C(=O)N(c2ccc(N4CCCCC4=O)cc2)CC3)cc1 [Apixaban, 1-(4-methoxyphenyl)-7-oxo-6-[4-(2-oxopiperidin-1-yl)phenyl]-4,5-dihydropyrazolo[3,4-c]pyridine-3-carboxamide]",—/↑,↓/↓↓,prolonged,prolonged,—/↑,—/↑,↑,—/↑,↓/↓↓,–,–,–,–,–
COc1ccc(NC(=O)c2ccc(C(=N)N(C)C)cc2)c(C(=O)Nc2ccc(Cl)cn2)c1 [Betrixaban],–,↓↓,prolonged,prolonged,–,–,–,–,↓↓,–,–,–,–,–
"CN1CCc2nc(C(=O)N[C@@H]3C[C@@H](C(=O)N(C)C)CC[C@@H]3NC(=O)C(=O)Nc3ccc(Cl)cn3)sc2C1 [Edoxaban, N′-(5-chloropyridin-2-yl)-N-[(1S,2R,4S)-4-(dimethylcarbamoyl)-2-[(5-methyl-6,7-dihydro-4H-[1,3]thiazolo[5,4-c]pyridine-2-carbonyl)amino]cyclohexyl]oxamide]",—/↑,↓↓,prolonged,–,↑,–,↑,↑/↑↑,↓/↓↓,–,–,–,–,–
"O=C(NC[C@H]1CN(c2ccc(N3CCOCC3=O)cc2)C(=O)O1)c1ccc(Cl)s1 [Rivaroxaban, 5-Chloro-N-({(5S)-2-oxo-3-[4-(3-oxo-4-morpholinyl)phenyl]-1,3-oxazolidin-5-yl}methyl)-2-thiophenecarboxamide]",—/↑,↓↓/↓↓↓,prolonged,prolonged,—/↑,—/↑,↑,↑/↑↑,↓↓,completely removed,completely removed,No interference,prolongs the clotting time,339
